Assay results from patent US9868748B2, “Thiazolopyrrolidine inhibitors of ROR- γ” (Vitae Pharmaceuticals, Inc., priority 2013, dated 2018).
Like-named read-outs stand apart in the source and are kept apart here.

Tests used:
[1] = molecular target: recombinant RORγ Ligand Binding Domain (LBD) protein (Homo sapiens (Human), UniProt P51449); assay: Radio-Ligand RORγ Binding Assay (Assay 1); details: competition with 25-hydroxy [26,27-3H]-cholesterol, SPA, read-out: RORγ Binding Ki Range*
Outline: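 Recombinant human RORγ ligand binding domain (6×His-GST fusion, 24 nM stock) competed with tritiated 25-hydroxycholesterol (8.6 nM stock) in HEPES buffer pH 7.4 with detergents and DTT; poly-Lys YSi SPA beads, room temperature, tritium SPA signal. Four-parameter IC50 from semi-log dilutions, normalised to DMSO and 10 μM T0901317, then Ki via KD equation.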

[2] = molecular target: full-length RORγt in Jurkat cells (Homo sapiens (Human), UniProt P51449); assay: RORγt 5xRORE Assay in Jurkat Cells (Assay 2); type: cell-based; details: Nanoluc luciferase reporter, 16-18 hrs
full-length RORγt in Jurkat cells, sequence (P51449 other isoform, or with tags, fused parts or gaps): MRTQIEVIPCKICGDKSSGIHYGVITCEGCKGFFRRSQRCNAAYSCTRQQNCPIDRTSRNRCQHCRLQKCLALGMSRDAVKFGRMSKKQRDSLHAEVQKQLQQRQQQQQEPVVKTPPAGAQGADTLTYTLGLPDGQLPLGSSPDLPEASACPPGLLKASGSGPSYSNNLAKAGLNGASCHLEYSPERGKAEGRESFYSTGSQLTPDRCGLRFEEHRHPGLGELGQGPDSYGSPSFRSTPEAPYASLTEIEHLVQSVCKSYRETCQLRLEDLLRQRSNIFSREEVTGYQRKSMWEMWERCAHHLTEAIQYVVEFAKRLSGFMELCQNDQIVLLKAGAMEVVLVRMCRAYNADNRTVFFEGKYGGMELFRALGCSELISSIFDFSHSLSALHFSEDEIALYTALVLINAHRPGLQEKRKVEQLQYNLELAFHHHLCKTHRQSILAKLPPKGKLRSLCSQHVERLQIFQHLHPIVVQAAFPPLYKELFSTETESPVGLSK
Outline: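 Inverse agonist activity was read as NanoGlo luminescence from conditioned medium after 16–18 h compound exposure (37 °C, 0.1% DMSO final). The cells were Jurkat, transiently transfected with RORγt and a secNluc reporter carrying five RORE repeats, seeded 80,000 per well in delipidated-serum RPMI.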

[3] = Table 9, read-out: RORγt5X IC50 Range*
[4] = Table 8, read-out: RORγt5X IC50 Range*

recombinant RORγ Ligand Binding Domain (LBD) protein, sequence (P51449 269-508): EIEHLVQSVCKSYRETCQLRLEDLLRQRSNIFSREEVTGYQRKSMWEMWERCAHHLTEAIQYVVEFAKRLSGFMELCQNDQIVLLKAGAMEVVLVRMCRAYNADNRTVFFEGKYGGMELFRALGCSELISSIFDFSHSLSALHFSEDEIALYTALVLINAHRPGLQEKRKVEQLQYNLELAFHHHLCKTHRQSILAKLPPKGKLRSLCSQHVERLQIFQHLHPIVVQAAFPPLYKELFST

SMILES: CCS(=O)(=O)c1ccc(CC(=O)Nc2nc3c(s2)CN(C[C@H]2CC[C@@](C)(C#N)CC2)[C@H]3C(C)C)cc1 (single isomer, unassigned)
- Ki ([1]; Table 9): < 0.1 µM
- IC50 [2, 3]: < 0.1 µM

SMILES: CCS(=O)(=O)c1ccc(CC(=O)Nc2nc3c(s2)CN(C[C@H]2CC[C@](C)(C#N)CC2)[C@H]3C(C)C)cc1 (single isomer, unassigned)
- Ki ([1]; Table 9): < 0.1 µM
- IC50 [2, 3]: > 1 µM

SMILES: CCS(=O)(=O)c1ccc(CC(=O)Nc2nc3c(s2)CN(C[C@H]2CC[C@@H](C(F)(F)F)O2)[C@H]3C(C)C)nc1 (single isomer, unassigned)
- Ki ([1]; Table 9): < 0.1 µM
- IC50 [2, 3]: > 1 µM

SMILES: CCS(=O)(=O)c1ccc(CC(=O)Nc2nc3c(s2)CN(C[C@H]2CC[C@@H](C(F)(F)F)OC2)[C@H]3C(C)C)nc1 (single isomer, unassigned)
- Ki ([1]; Table 9): < 0.1 µM
- IC50 [2, 3]: 0.1 to 1 µM

SMILES: CCS(=O)(=O)c1ccc(CC(=O)Nc2nc3c(s2)CN(C[C@@H]2CC[C@H](C(F)(F)F)O2)[C@H]3C(C)C)nc1 (single isomer, unassigned)
- Ki ([1]; Table 9): < 0.1 µM
- IC50 [2, 3]: > 1 µM

SMILES: CCS(=O)(=O)c1ccc(CC(=O)Nc2nc3c(s2)CN(C[C@@H]2CC[C@H](C(F)(F)F)NC2)[C@H]3C(C)C)nc1 (single isomer, unassigned)
- Ki ([1]; Table 9): < 0.1 µM
- IC50 [2, 3]: > 1 µM

SMILES: CCS(=O)(=O)c1ccc(CC(=O)Nc2nc3c(s2)CN(C[C@@H]2CC[C@H](C(F)(F)F)OC2)[C@H]3C(C)C)nc1 (single isomer, unassigned)
- Ki ([1]; Table 9): < 0.1 µM
- IC50 [2, 3]: > 1 µM

SMILES: CCS(=O)(=O)c1ccc(CC(=O)Nc2nc3c(s2)CN(C[C@H]2CC[C@](OC)(C(F)(F)F)CC2)[C@H]3C(C)C)nc1 (single isomer, unassigned)
- Ki ([1]; Table 9): < 0.1 µM
- IC50 [2, 3]: < 0.1 µM

SMILES: CCS(=O)(=O)c1ccc(CC(=O)Nc2nc3c(s2)CN(C[C@H]2CC[C@@](OC)(C(F)(F)F)CC2)[C@H]3C(C)C)nc1 (single isomer, unassigned)
- Ki ([1]; Table 9): < 0.1 µM
- IC50 [2, 3]: 0.1 to 1 µM

SMILES: CCS(=O)(=O)c1ccc(CC(=O)Nc2nc3c(s2)CN(C[C@H]2CC[C@@H](C(F)(F)F)NC2)[C@H]3C(C)C)cc1 (single isomer, unassigned)
- Ki ([1]; Table 9): < 0.1 µM
- IC50 [2, 3]: > 1 µM

SMILES: CCS(=O)(=O)c1ccc(CC(=O)Nc2nc3c(s2)CN(C[C@H]2CC[C@@H](C(F)(F)F)OC2)[C@H]3C(C)C)cc1 (single isomer, unassigned)
- Ki ([1]; Table 9): < 0.1 µM
- IC50 [2, 3]: > 1 µM

SMILES: CCS(=O)(=O)c1ccc(CC(=O)Nc2nc3c(s2)CN(C[C@@H]2CC[C@H](C(F)(F)F)NC2)[C@H]3C(C)C)cc1 (single isomer, unassigned)
- Ki ([1]; Table 9): < 0.1 µM
- IC50 [2, 3]: > 1 µM

SMILES: CC(C)[C@H]1c2nc(NC(=O)Cc3ccc(S(C)(=O)=O)cc3)sc2CN1[C@@H](C)c1ccc(C#N)c(F)c1 (single isomer, unassigned)
- Ki ([1]; Table 9): < 0.1 µM
- IC50 [2, 3]: < 0.1 µM

SMILES: CC(C)[C@H]1c2nc(NC(=O)Cc3ccc(S(C)(=O)=O)cc3)sc2CN1[C@@H](C)c1ccc(C(F)(F)F)nc1 (single isomer, unassigned)
- Ki ([1]; Table 9): < 0.1 µM
- IC50 [2, 3]: < 0.1 µM

SMILES: CC(C)[C@H]1c2nc(NC(=O)Cc3ccc(S(C)(=O)=O)cc3)sc2CN1[C@H](C)c1ccc(Cl)cn1 (single isomer, unassigned)
- Ki ([1]; Table 9): < 0.1 µM
- IC50 [2, 3]: 0.1 to 1 µM

SMILES: CCS(=O)(=O)c1ccc(CC(=O)Nc2nc3c(s2)CN([C@H](C)c2ccc(C#N)cn2)[C@H]3C(C)C)cc1 (single isomer, unassigned)
- Ki ([1]; Table 9): < 0.1 µM
- IC50 [2, 3]: < 0.1 µM

SMILES: CC(C)[C@H]1c2nc(NC(=O)Cc3ccc(S(C)(=O)=O)cc3)sc2CN1[C@@H](C)c1ccc(Cl)cn1 (single isomer, unassigned)
- Ki ([1]; Table 9): < 0.1 µM
- IC50 [2, 3]: 0.1 to 1 µM

SMILES: CCS(=O)(=O)c1ccc(CC(=O)Nc2nc3c(s2)CN([C@@H](C)c2ccc(C#N)cn2)[C@H]3C(C)C)cc1 (single isomer, unassigned)
- Ki ([1]; Table 9): < 0.1 µM
- IC50 [2, 3]: < 0.1 µM

SMILES: CCS(=O)(=O)c1ccc(CC(=O)Nc2nc3c(s2)CN([C@H](C)Cc2ccc(Cl)cc2)[C@H]3C(C)C)cc1 (single isomer, unassigned)
- Ki ([1]; Table 9): < 0.1 µM
- IC50 [2, 3]: > 1 µM

SMILES: CC(C)[C@@H]1c2nc(NC(=O)Cc3ccc(S(C)(=O)=O)cc3)sc2CN1[C@H](C)c1ccc(C(F)(F)F)cc1 (single isomer, unassigned)
- Ki ([1]; Table 9): 0.1 to 1 µM
- IC50 [2, 3]: 0.1 to 1 µM

SMILES: CC(C)[C@@H]1c2nc(NC(=O)Cc3ccc(S(C)(=O)=O)cc3)sc2CN1[C@H](C)c1ccc(OC(F)(F)F)cc1 (single isomer, unassigned)
- Ki ([1]; Table 9): 0.1 to 1 µM
- IC50 [2, 3]: > 1 µM

SMILES: CCS(=O)(=O)c1ccc(CC(=O)Nc2nc3c(s2)CN([C@H](C)c2ccccc2)[C@@H]3C(C)C)cc1 (single isomer, unassigned)
- Ki ([1]; Table 9): < 0.1 µM
- IC50 [2, 3]: > 1 µM

SMILES: CCS(=O)(=O)c1ccc(CC(=O)Nc2nc3c(s2)CN([C@@H](C)c2ccccc2)[C@@H]3C(C)C)cc1 (single isomer, unassigned)
- Ki ([1]; Table 9): < 0.1 µM
- IC50 [2, 3]: > 1 µM

SMILES: CCS(=O)(=O)c1ccc(CC(=O)Nc2nc3c(s2)CN(C[C@H]2CC[C@H](C(F)(F)F)NC2)[C@H]3C(C)C)nc1 (single isomer, unassigned) [drawing 211]
- Ki ([1]; Table 9): 0.1 to 1 µM
- IC50 [2, 3]: 0.1 to 1 µM

SMILES: CCS(=O)(=O)c1ccc(CC(=O)Nc2nc3c(s2)CN(C[C@H]2CC[C@H](C(F)(F)F)NC2)[C@H]3C(C)C)nc1 (single isomer, unassigned) [drawing 212]
- Ki ([1]; Table 9): < 0.1 µM
- IC50 [2, 3]: > 1 µM

SMILES: CCS(=O)(=O)c1ccc(CC(=O)Nc2nc3c(s2)CN(Cc2ccc(OC(F)F)cc2)[C@H]3C(C)C)cc1 [I-A1, (S)—N-(5-(4-(difluoromethoxy)benzyl)-4-isopropyl-5,6-dihydro-4H-pyrrolo[3,4-d]thiazol-2-yl)-2-(4-(ethylsulfonyl)phenyl)acetamide]
- Ki ([1]; Table 8): < 0.1 µM
- IC50 [2, 4]: < 0.1 µM

SMILES: CCS(=O)(=O)c1ccc(CC(=O)Nc2nc3c(s2)CN(Cc2ccc(C(F)(F)F)cc2)[C@H]3C(C)C)cc1 [I-A2, (S)-2-(4-(ethylsulfonyl)phenyl)-N-(4-isopropyl-5-(4-(trifluoromethyl)benzyl)-5,6-dihydro-4H-pyrrolo[3,4-d]thiazol-2-yl)acetamide]
- Ki ([1]; Table 8): < 0.1 µM
- IC50 [2, 4]: < 0.1 µM

SMILES: CCS(=O)(=O)c1ccc(CC(=O)Nc2nc3c(s2)CN(Cc2ccc(C#N)c(F)c2)[C@H]3C(C)C)cc1 [I-A4]
- Ki ([1]; Table 8): < 0.1 µM
- IC50 [2, 4]: < 0.1 µM

SMILES: CCS(=O)(=O)c1ccc(CC(=O)Nc2nc3c(s2)CN(Cc2ccc(C#N)cn2)[C@H]3C(C)C)cc1 [I-A5]
- Ki ([1]; Table 8): < 0.1 µM
- IC50 [2, 4]: < 0.1 µM

SMILES: CCS(=O)(=O)c1ccc(CC(=O)Nc2nc3c(s2)CN(Cc2ncc(C(F)(F)F)cn2)[C@H]3C(C)C)cc1 [I-A6]
- Ki ([1]; Table 8): < 0.1 µM
- IC50 [2, 4]: < 0.1 µM

SMILES: CCS(=O)(=O)c1ccc(CC(=O)Nc2nc3c(s2)CN(Cc2ccccc2)[C@H]3C(C)C)cc1 [I-A7]
- Ki ([1]; Table 8): < 0.1 µM
- IC50 [2, 4]: > 1 µM

SMILES: CCS(=O)(=O)c1ccc(CC(=O)Nc2nc3c(s2)CN(Cc2cccc(C(F)(F)F)c2)[C@H]3C(C)C)cc1 [I-A8]
- Ki ([1]; Table 8): < 0.1 µM
- IC50 [2, 4]: > 1 µM

SMILES: CCS(=O)(=O)c1ccc(CC(=O)Nc2nc3c(s2)CN(Cc2nnc(C(F)(F)F)o2)[C@H]3C(C)C)cc1 [I-A9]
- Ki ([1]; Table 8): < 0.1 µM
- IC50 [2, 4]: > 1 µM

SMILES: CCS(=O)(=O)c1ccc(CC(=O)Nc2nc3c(s2)CN(Cc2ncc(Cl)cc2F)[C@H]3C(C)C)cc1 [I-A10]
- Ki ([1]; Table 8): < 0.1 µM
- IC50 [2, 4]: < 0.1 µM

SMILES: CCS(=O)(=O)c1ccc(CC(=O)Nc2nc3c(s2)CN(Cc2ccc(Cl)cn2)[C@H]3C(C)C)cc1 [I-A11]
- Ki ([1]; Table 8): < 0.1 µM
- IC50 [2, 4]: < 0.1 µM

SMILES: CCS(=O)(=O)c1ccc(CC(=O)Nc2nc3c(s2)CN(Cc2ccc(C#N)cc2F)[C@H]3C(C)C)cc1 [I-A13]
- Ki ([1]; Table 8): < 0.1 µM
- IC50 [2, 4]: < 0.1 µM

SMILES: CCS(=O)(=O)c1ccc(CC(=O)Nc2nc3c(s2)CN(Cc2ccc(F)cc2)[C@H]3C(C)C)cc1 [I-A14]
- Ki ([1]; Table 8): < 0.1 µM
- IC50 [2, 4]: > 1 µM

SMILES: CCS(=O)(=O)c1ccc(CC(=O)Nc2nc3c(s2)CN(Cc2ccc(C#N)cc2)[C@H]3C(C)C)cc1 [I-A15]
- Ki ([1]; Table 8): < 0.1 µM
- IC50 [2, 4]: < 0.1 µM

SMILES: CCS(=O)(=O)c1ccc(CC(=O)Nc2nc3c(s2)CN(Cc2ccc(OC(F)(F)F)cc2)[C@H]3C(C)C)cc1 [I-A16]
- Ki ([1]; Table 8): < 0.1 µM
- IC50 [2, 4]: < 0.1 µM

SMILES: CCS(=O)(=O)c1ccc(CC(=O)Nc2nc3c(s2)CN(C[C@H]2CC[C@H](C(F)(F)F)CC2)[C@H]3C(C)C)cc1 [I-A17, 2-(4-(ethylsulfonyl)phenyl)-N—((S)-4-isopropyl-5-((trans-4-(trifluoromethyl)cyclohexyl)methyl)-5,6-dihydro-4H-pyrrolo[3,4-d]thiazol-2-yl)acetamide]
- Ki ([1]; Table 8): < 0.1 µM
- IC50 [2, 4]: < 0.1 µM
